# Where a name gives a salt, the structure may show the parent alone. Read-outs that look alike come from different tables or passages of the source.
# What was measured:
# [1] = tested on: Human breast cancer cell line BT-474; test: Evaluation of combination effects in vitro (WST-1 proliferation, Combination Index by Pegram method); format: cell-based; conditions: for CI value (Combination Index) / D1 (concentration of test agent in combination required for fa): combination with Herceptin; for Df1 (concentration of test agent as single agent required for fa): fa 0.9, BT-474; for combination effect with Herceptin, overall evaluation by Combination Index: summary of Examples 1-3, BT-474
# Method: The effects of the combined use were evaluated by calculating a Combination Index (CI) following a method of Pegram et al. (M. Pegram et al., Oncogene, 18, 2241-2251 (1999)). Human breast cancer cell line BT-474 (a cell line in which HER2 is highly expressed) was obtained from ATCC (American Type Culture Collection). In a medium comprising equal amount of D-MEM (Dulbecco's Modified Eagle Medium) medium and F-12 (Nutrient Mixture F-12) medium which further contains 2.5 mM L-glutamine, 10% bovine fetal serum (FCS) and 2.5 μg/ml amphotericin B, human breast cancer cell line BT-474 was subcultured. The culture was carried out in an incubator with 5% CO2 at 37° C. This medium was also used in the following experiments. HerceptinTM was dissolved in a dissolution solution attached thereto to prepare a 21 mg/ml stock solution. Thereafter, the solution was used after 2 fold serial dilutions with the medium. […] Doxorubicin hydrochloride was obtained from Kyowa Hakko Kogyo Co., Ltd. A 2 mg/ml solution was prepared by adding 5 ml of sterile water to a 10 mg vial, and the solution was used. Human breast cancer cell line BT-474 on subculture were subjected to a trypsin treatment, suspended in the medium, and seeded on a 96-well plate. The seeding density was set to be 1×10^4 cells/0.1 ml/well. After seeding, cells were cultured overnight in an incubator with 5% CO2 at 37° C. (Day 0). […] The experiments were conducted with n=3 for the agent-treated group, and with n=6 for the non-treated (control) group. Until Day 4, culture was conducted in an incubator with 5% CO2 at 37° C. […] Thereafter, culture was conducted in an incubator with 5% CO2 at 37° C. for 2-4 hours. Absorbance of the culture was then measured with MICROPLATE READER Model 3550-UV (BioRad), and living cell number was measured. […] CI and inhibition rate of proliferation fa were calculated as described above.
# [2] = Cardiotoxicity test using monkey (combination with Herceptin); conditions: rhesus monkey, intravenous, amrubicin hydrochloride at two times the dosage of doxorubicin hydrochloride
# Method: The administration of amrubicin hydrochloride at a dosage of two times of doxorubicin hydrochloride is carried out on the basis of therapeutic dosages of both agents.
# Into vein of a rhesus monkey, is administered doxorubicin at a dose of 2.92 mg/kg (35 mg/m^2), 7-8 times with three weeks intervals.
# Accordingly, the agent-administered groups are set to be as follows:
# 1) agent non-administered group
# 2) doxorubicin hydrochloride 2-4 mg/kg, iv, 8q3W
# 4) amrubicin hydrochloride 4-8 mg/kg, iv, 8q3W
# On 140-150 days post initiation of the administration, the animal is dissected, and histopathological diagnosis of the heart is carried out. Judging from the comparison of impairment of the myocardial cells, cardiotoxicity is evaluated.
# [3] = rabbit chronic experimental model, compared with doxorubicin; cited from earlier work
# topoisomerase II = conditions: at a concentration which leads to 50% inhibition of cell proliferation; cited from earlier work
# [4] = metabolite obtained by reduction in vivo; cited from earlier work
# [5] = clinical use; cited from earlier work
# [6] = in vitro experiment, Pegram et al. 1999; cited from earlier work
# [7] = rhesus monkey, iv 2.92 mg/kg (35 mg/m^2), 7-8 times with three weeks intervals, 140-150 days post initiation; cited from earlier work
# [8] = compared with amrubicin and amrubicinol; cited from earlier work
# [9] = dosage ratio 40:1, fa 0.9, BT-474
# [10] = dosage ratio 2:1, fa 0.9, BT-474
# [11] = dosage ratio 4:1, fa 0.9, BT-474
# [12] = dosage ratio 8:1, fa 0.9, BT-474
# [13] = dosage ratio 2:1, fa 0.9, BT-474, CI<1 synergistic, CI=1 additive
SMILES,Df1 (concentration of test agent as single agent required for fa) [1],"combination effect with Herceptin, overall evaluation by Combination Index [1]",cardiotoxicity in combination with Herceptin [2],"CI value (Combination Index) [1, 10]","D1 (concentration of test agent in combination required for fa) [1, 10]","combination effect with Herceptin judged from CI value [1, 13]",stabilization of cleavable complex via topoisomerase II (topoisomerase II),other results
"CC(=O)[C@]1(N)Cc2c(O)c3c(c(O)c2[C@@H](O[C@H]2C[C@H](O)[C@H](O)CO2)C1)C(=O)c1ccccc1C3=O [Amrubicin hydrochloride, (+)-(7S,9S)-9-acetyl-9-amino-7-[(2-deoxy-β-D-erythro-pentopyranosyl)oxy]-7,8,9,10-tetrahydro-6,11-dihydroxy-5,12-naphthacenedione]",7.542 µg/mL,marked synergistic effects,cardiotoxicity is not presented,–,–,–,–,"CI value (Combination Index) [1, 9]: 0.17; D1 (concentration of test agent in combination required for fa) [1, 9]: 1.267 µg/mL; combination effect with Herceptin judged from CI value [1, 9]: synergistic effect"
CC(O)[C@]1(N)Cc2c(O)c3c(c(O)c2[C@@H](O[C@H]2C[C@H](O)[C@H](O)CO2)C1)C(=O)c1ccccc1C3=O.Cl (stereo partly drawn) [Amrubicinol hydrochloride],0.671 µg/mL,marked synergistic effects,–,0.38,0.239 µg/mL,synergistic effect,–,"CI value (Combination Index) [1, 11]: 0.33; D1 (concentration of test agent in combination required for fa) [1, 11]: 0.212 µg/mL; CI value (Combination Index) [1, 12]: 0.42; D1 (concentration of test agent in combination required for fa) [1, 12]: 0.279 µg/mL; combination effect with Herceptin judged from CI value ([1]; dosage ratio in the range of 2:1-8:1, fa 0.9, BT-474): synergistic effect"
"COc1cccc2c1C(=O)c1c(O)c3c(c(O)c1C2=O)C[C@@](O)(C(=O)CO)C[C@@H]3O[C@H]1C[C@H](N)[C@H](O)[C@H](C)O1 [Doxorubicin hydrochloride, reference compound]",0.434 µg/mL,–,cardiotoxicity is strongly presented,0.92,0.373 µg/mL,additive effect,–,–
"CC(=O)[C@]1(N)Cc2c(O)c3c(c(O)c2[C@@H](O[C@H]2C[C@H](O)[C@H](O)CO2)C1)C(=O)c1ccccc1C3=O [amrubicin, (+)-(7S,9S)-9-acetyl-9-amino-7-[(2-deoxy-β-D-erythro-pentopyranosyl)oxy]-7,8,9,10-tetrahydro-6,11-dihydroxy-5,12-naphthacenedione]",–,–,–,–,–,–,sufficiently stabilize a cleavable complex,cardiotoxicity [3]: far less than that of doxorubicin
CC(O)[C@]1(N)Cc2c(O)c3c(c(O)c2[C@@H](O[C@H]2C[C@H](O)[C@H](O)CO2)C1)C(=O)c1ccccc1C3=O (stereo partly drawn) [amrubicinol],–,–,–,–,–,–,sufficiently stabilize a cleavable complex,anti-cancer activity of metabolite compared with amrubicin [4]: stronger anti-cancer activity
COc1cccc2c1C(=O)c1c(O)c3c(c(O)c1C2=O)C[C@@](O)(C(=O)CO)C[C@@H]3O[C@H]1C[C@H](N)[C@H](O)[C@H](C)O1 [doxorubicin],–,–,–,–,–,–,does not stabilize the cleavable complex,cardiotoxicity in combination with Herceptin [5]: cardiotoxicity is developed at a high frequency; combination effect with Herceptin [6]: additive effects; histopathological observation of the heart [7]: vacuolation of myocardial cells; intercalation activity [8]: about ten times stronger than those of amrubicin and amrubicinol

# Reference: patent US9139658B2, “Medicament for treatment cancer” (SUMITOMO DAINIPPON PHARMA CO., LTD., priority 2000, dated 2015)
